According to US20180153931A1 (Aventis Pharma S.A., priority 2011, published 2018):

Columns and labels:
[1] = Toxicity (drug death, body weight loss, HNTD) in C51 tumor-bearing BALB/c mice; type: in vivo
Text: The animals are observed every day.
Toxicity was declared at dosages inducing≥20% body weight loss or≥10% drug death

colon adenocarcinoma C51 = assay: Antitumor efficacy against colon adenocarcinoma C51 grafted in BALB/c mice (T/C, T-C, log cell kill)
Procedure: This efficacy may be quantified, for example, by the log10 cell kill, which is determined according to the following formula:
A product is considered to be active if log10 cell kill is greater than or equal to 0.7. A product is considered to be very active if log10 cell kill is greater than or equal to 2.8.
The combination will manifest therapeutic synergy when the log10 cell kill is greater than the value of the log10 cell kill of the best constituent administered alone at its maximum tolerated dose (by at least 1 log cell kill).
The efficacy of the combinations on solid tumors may be determined experimentally in the following manner:
The animals subjected to the experiment, generally mice, are subcutaneously grafted bilaterally with 30 to 60 mg of a tumor fragment on day 0. The animals are implanted with a murine tumor grafted in the syngenic strain of mice of origin of the tumor, or by a rodent or human tumor xenografted in immunocompromized mice. Some days post tumor implantation, mice are randomized according to their body weight to the different groups of treatments and controls. The animals are observed every day. […] The groups are then weighed once or twice a week until the end of the trial.
The tumors are measured 1 to 5 times a week, depending on the tumor doubling time, until the tumor reaches approximately 2 g, or until the animal dies (if this occurs before the tumor reaches 2 g). The animals are necropsied immediately after euthanasia or death.
Cabazitaxel was weighed for each treatment and dissolved in ethanol. Treatment solutions were prepared first by mixing 1 volume of ethanolic stock solution and 1 volume of polysorbate 80, then by adding 18 volumes of glucose 5% in water. Cabazitaxel was administered intravenously on days 5, 12 (or 13) after tumor implantation.
The tumors of treatment (T) and control (C) groups were measured when the median of control group reached approximately 750 to 1400 mg. The median tumor weight of each group was determined.
Antitumor efficacy was determined by calculating the T/C value in percent: T/C (%)=Median tumor weight of the Treated/control×100
A T/C <10% is considered to indicate high antitumor activity and is the level used by NCI to justify further development (Decision Network-2 level, DN-2).
To better quantify the antitumor activity, another end point, the log cell kill, was used:

[2] = Phase I study: pharmacokinetics of cabazitaxel and cisplatin in patients; conditions: cisplatin 75 mg/m^2 followed by cabazitaxel
[3] = cisplatin dose 75 mg/m^2; value given with 'previously reported'; cited from earlier work
[4] = cabazitaxel alone 7.7 mg/kg/inj IV (total 15.4), days 5, 12
[5] = cabazitaxel alone 12.4 mg/kg/inj IV (total 24.8), days 5, 12
[6] = cabazitaxel alone 20.0 mg/kg/inj IV (total 40.0), days 5, 12
[7] = cabazitaxel alone 32.3 mg/kg/inj IV (total 64.6), days 5, 12
[8] = cisplatin alone 2.7 mg/kg/inj IV (total 5.4), days 5, 12

In the case of CO[C@H]1C(=O)[C@]2(C)[C@@H](OC)C[C@H]3OC[C@@]3(OC(C)=O)[C@H]2[C@H](OC(=O)c2ccccc2)[C@]2(O)C[C@H](OC(=O)[C@H](O)[C@@H](NC(=O)OC(C)(C)C)c3ccccc3)C(C)=C1C2(C)C [cabazitaxel, 4α-acetoxy-2α-benzoyloxy-5β,20-epoxy-1β-hydroxy-7β, 10β-dimethoxy-9-oxo-11-taxen-13α-yl (2R,3S)-3-tert-butoxycarbonylamino-2-hydroxy-3-phenylpropionate], the Drug death [1, 4] is reported as 0/6, the “% Body weight change at nadir” value ([1]; cabazitaxel alone 7.7 mg/kg/inj IV (total 15.4), days 5, 12, nadir day 9) is reported as −6.8% and the Drug death [1, 5] is reported as 0/6. The “% Body weight change at nadir” value ([1]; cabazitaxel alone 12.4 mg/kg/inj IV (total 24.8), days 5, 12, nadir day 9) was −8.1%, the Drug death [1, 6] was 0/6 and the “% Body weight change at nadir” value ([1]; cabazitaxel alone 20.0 mg/kg/inj IV (total 40.0), days 5, 12, nadir day 19) was −14.6%. The Comments [1, 7] was “Toxic (6/6 DD)”, the Drug death [1, 7] was 6/6 and the “highest nontoxic dose (HNTD)” value ([1]; cabazitaxel alone IV, days 5, 12 (total injected dose 40 mg/kg)) was 20 mg/kg/inj. For the same compound, the Comments (colon adenocarcinoma C51; [4]) was “Active”, the “T-C in days (750 mg)” value (colon adenocarcinoma C51; [4]) was 11.0 days and the “T/C in % on day 20” value (colon adenocarcinoma C51; [4]) was 5%. The “log10 cell kill gross” value (colon adenocarcinoma C51; [4]) was 1.3, the Comments (colon adenocarcinoma C51; [5]) was “Active” and the “T-C in days (750 mg)” value (colon adenocarcinoma C51; [5]) was 11.7 days. The “T/C in % on day 20” value (colon adenocarcinoma C51; [5]) was 3%, the “log10 cell kill gross” value (colon adenocarcinoma C51; [5]) was 1.4 and the Comments (colon adenocarcinoma C51; [6]) was “HNTD active”. The “T-C in days (750 mg)” value (colon adenocarcinoma C51; [6]) was 15.2 days, the “T/C in % on day 20” value (colon adenocarcinoma C51; [6]) was 0% and the “log10 cell kill gross” value (colon adenocarcinoma C51; cabazitaxel alone 20.0 mg/kg/inj IV (total 40.0), days 5, 12 (HNTD)) was 1.8.

For N.N.[Cl][Pt][Cl] [cisplatin], the “effect of cabazitaxel on the PK of cisplatin (total and free)” value [2] is listed as “did not appear to alter”, the “AUClast, free platinum” value [3] is listed as 4170 ng·h/mL and the “AUClast, total platinum” value [3] is listed as 45 820 ng.h/mL. For the same compound, the Comments (colon adenocarcinoma C51; [8]) was “Active”, the “T-C in days (750 mg)” value (colon adenocarcinoma C51; [8]) was 15.1 days and the “T/C in % on day 20” value (colon adenocarcinoma C51; [8]) was 2%. For the same compound, the “log10 cell kill gross” value (colon adenocarcinoma C51; [8]) was 1.8 and the “T-C in days (750 mg)” value (colon adenocarcinoma C51; cisplatin alone […] IV (total 8.6), days 5, 12) was 22.1 days.
